{"source": "patent US11648202B2", "about": "“Hydroxychloroquine sulfate formulations and methods for preparation and use thereof” (Research Triangle Institute, priority 2017, dated 2023)", "origin": "cited, not measured here", "note": "Structures can show the parent of a compound that is named as a salt.", "data": [{"compound": "CCN(CCO)CCCC(C)Nc1ccnc2cc(Cl)ccc12", "note": "(stereo not shown) [HCQS, hydroxychloroquine sulfate]", "values": [{"measurement": "pKa of the amine", "value": "about 9.4"}]}]}
